Some results are limits rather than exact numbers.

For one test, the target named is T1, aurora2 kinase (Homo sapiens, UniProt O14965).
T1 construct: made in house; host or cells: Spodoptera frugiperda Sf21 insect cells (baculovirus)
T1 sequence (O14965 1-403): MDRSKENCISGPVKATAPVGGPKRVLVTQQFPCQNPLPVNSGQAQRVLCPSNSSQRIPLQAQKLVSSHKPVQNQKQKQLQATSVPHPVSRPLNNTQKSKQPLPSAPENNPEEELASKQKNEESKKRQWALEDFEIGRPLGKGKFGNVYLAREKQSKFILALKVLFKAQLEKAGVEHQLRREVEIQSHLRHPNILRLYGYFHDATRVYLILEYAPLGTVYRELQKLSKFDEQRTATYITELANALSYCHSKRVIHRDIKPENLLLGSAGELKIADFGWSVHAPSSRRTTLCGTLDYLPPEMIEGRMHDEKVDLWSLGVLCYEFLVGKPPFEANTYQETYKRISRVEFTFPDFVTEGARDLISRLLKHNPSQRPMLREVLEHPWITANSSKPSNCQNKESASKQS
Nature of the test: In vitro aurora2 kinase inhibition test. It is filed as biochemical.

The next test has as its system MCF7 cells. Description: In vitro cell cycle analysis assay. It is filed as cell-based, human. Conditions: 24 hours, 10 μM Compound 52 (text b2735 says 1 μM). Here is the method: (a) In Vitro Cell Cycle Analysis Assay
This assay determines the ability of a test compound to arrest cells in specific phases of the cell cycle. Many different mammalian cell lines could be used in this assay and MCF7 cells are included here as an example. MCF-7 cells were seeded at 3×10^5 cells per T25 flask (Costar) in 5 ml DMEM (no phenol red 10% FCS, 1% L-glutamine 1% penicillin/streptomycin). Flasks were then incubated overnight in a humidified 37° C. incubator with 5% CO2. The following day 1 ml of DMEM (no phenol red 10% FCS, 1% L-glutamine 1% penicillin/streptomycin) carrying the appropriate concentration of test compound solubilised in DMSO was added to the flask. A no compound control treatments was also included (0.5% DMSO). The cells were then incubated for a defined time (usually 24 hours) with compound. […] The samples were then transferred to LPS tubes and DNA content per cell analysed by Fluorescence activated cell sorting (FACS) using a FACScan flow cytometer (Becton Dickinson). Typically 25000 events were counted and recorded using CellQuest v1.1 software (Verity Software). Cell cycle distribution of the population was calculated using Modfit software (Verity Software) and expressed as percentage of cells in G0/G1, S and G2/M phases of the cell cycle. […]

The test system of test [1] is human tumour cell line MCF7. Nature of the test: In vitro cell proliferation assay. Conditions: MCF7, 72 h, MCF-7 cells, 3 days with compound, CyQUANT, read-out: concentration giving 50% inhibition of cell proliferation. Type of test: cell-based. The source says: (a) In Vitro Cell Proliferation Assay
This assay determines the ability of a test compound to inhibit the growth of adherent mammalian cell lines, for example the human tumour cell line MCF7. MCF-7 (ATCC HTB-22) or other adherent cells were typically seeded at 1×10^3 cells per well (excluding the peripheral wells) in DMEM (Sigma Aldrich) without phenol red, plus 10% foetal calf serum, 1% L-glutamine and 1% penicillin/streptomycin in 96 well tissue culture treated clear plates (Costar). The following day (day 1), the media was removed from a no treatment control plate and the plate stored at −80° C. The remaining plates were dosed with compound (diluted from 10 mM stock in DMSO using DMEM (without phenol red, 10% FCS, 1% L-glutamine, 1% penicillin/streptomycin). Untreated control wells were included on each plate. After 3 days in the presence/absence of compound (day 4) the media was removed and the plates stored at −80° C. Twenty four hours later the plates were thawed at room temperature and cell density determined using the CyQUANT cell proliferation assay kit (c-7026/c-7027 Molecular Probes Inc.) according to manufacturers directions. Briefly, 200 μl of a cell lysis/dye mixture (10 μl of 20× cell lysis buffer B, 190 μl of sterile water, 0.25 μl of CYQUANT GR dye) was added to each well and the plates incubated at room temperature for 5 minutes in the dark. […]

Turning to `COc1cc2c(Nc3nc(CC(=O)Nc4ccc(F)cc4)cs3)ncnc2cc1OCCCN1CCOCC1` [Compound 52], the IC50 against aurora2 kinase amounted to 167 nM; in test [1], 616 nM. Moreover, the “% Cells in G2/M” value in the test with MCF7 cells is given as greater than 50%.

These data come from patent publication US6919338B2, “Substituted quinazoline derivatives and their use as inhibitors of aurora-2 kinase” (AstraZeneca AB, priority 2000, dated 2005).
